≈ marks a conversion by molar mass, not a printed value. Where two headings read alike, the source gives them in different places.
Experiments:
P-glycoprotein (PgP) = P-glycoprotein (PgP) binding: MTT with and without cyclosporin A; format: cell-based, rat; settings: H4IIE 24 HR; for % Control (Compound + CSA) / % Control (Compound): MTT, 50 μM; for % Control (Compound + CSA): with cyclosporin A; for % Control (Compound): without CSA; for % Difference: 1-20% low, 20-50% moderate, 50-100% high PgP interaction
Procedure: Several antiviral drugs are substrates for P-glycoprotein transporter (PgP).
P-glycoprotein (PgP) transport proteins are expressed in the bile canalicular membrane of normal liver. However, in neoplastic cells it is not uncommon to have expression of this transporter system in the plasma membrane. […] The existence of these transporters was evaluated with the Calcein-AM assay and with known substrates of PgP.

MTT reduction = format: cell-based, rat
Summary of the method: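 Cardiomyocytes from neonatal rats were exposed to the compound and cell function was monitored by tetrazolium (MTT) dye reduction. Values are group means over n=3-7.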

[1] = Solubility in culture medium (nephelometry); format: physicochemical
Procedure: Solubility: The test compounds were prepared in DMSO and the appropriate amounts were then added to complete medium containing 10% bovine serum […] at 37° C. The samples were evaluated using a light scattering technique and a Nephaloskan instrument.
Solubility Assay: The test compounds were prepared in DMSO and the appropriate amounts were then added to complete medium containing 10% bovine serum at 37° C. The samples were evaluated using a light scattering technique and a Nephaloskan instrument.

Intracellular ATP levels = format: cell-based, rat
Summary of the method: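 Neonatal rat cardiomyocytes exposed to the compound; cellular ATP measured by luciferin/luciferase luminescence after lysis with an ATPase-inhibiting reagent, quantified against an ATP calibration curve in matching matrix (pmol ATP/million cells). Background-corrected luminescence expressed as percent of control; means of n=3-7.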

H4IIE cells = assay: Predicted Ctox from Tox-Panel; format: cell-based, rat; settings: 24 HR, estimated sustained plasma concentration where toxicity would be expected in vivo
Summary of the method: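 Ctox is taken as the NOEL from 24 h concentration-response profiles in H4IIE cells, covering at least cell replication, mitochondrial function and membrane integrity. Each indicator is expressed as a percentage of the compound-free control. It estimates the sustained toxic plasma concentration in vivo.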

[2] = neonatal rat cardiomyocytes, rat cardiomyocytes (CM), 24 HR exposure, read-out: MTT TC50
[3] = neonatal rat cardiomyocytes, rat cardiomyocytes (CM), 24 HR exposure, read-out: ATP TC50

SMILES | % Control (Compound + CSA) (P-glycoprotein (PgP)) [%] | % Control (Compound) (P-glycoprotein (PgP)) [%] | % Difference (P-glycoprotein (PgP)) [%] | CC50 at 24 h (MTT reduction; [2]) [µM] | solubility ([1]; plasma or biological fluid, kinetic from dmso stock, dosing medium with 20% serum, 37° C., CM 24 HR, read-out: Highest Soluble Concentration Tested) [µM] | CC50 at 24 h (Intracellular ATP levels; [3]) [µM] | Predicted Ctox (H4IIE cells) [µM] | solubility ([1]; culture medium with 20% serum, 37 °C, plasma or biological fluid, kinetic from dmso stock, culture media containing 20% serum, NRK 6 HR, read-out: Highest Soluble Concentration) [µM] | solubility ([1]; dosing (complete culture) medium with 20% serum, plasma or biological fluid, kinetic from dmso stock, dosing medium with 20% serum, 37° C., CM 24 HR, read-out: Highest Soluble Concentration Tested) [µM] | solubility ([1]; dosing medium (complete culture medium with serum), plasma or biological fluid, kinetic from dmso stock, dosing medium, 37° C., SK-MEL28 24 HR, read-out: Highest Soluble Concentration) [µM] | solubility ([1]; plasma or biological fluid, kinetic from dmso stock, dosing medium, 37° C., HUVEC 24 HR, read-out: Highest Soluble Concentration) [µM] | CC50 at 24 h (MTT reduction; rat) [µM] | solubility ([1]; 37 °C, plasma or biological fluid, kinetic from dmso stock, dosing medium with 20% serum, 37° C., CM 24 HR, read-out: Highest Soluble Concentration Tested) [µM] | solubility ([1]; 37 °C, plasma or biological fluid, kinetic from dmso stock, dosing medium with 20% serum, 37° C., H4IIE 24 HR, read-out: Highest Soluble Concentration Tested) [µM] | CC50 at 24 h (Intracellular ATP levels; rat) [µM] | solubility ([1]; dosing medium with 20% serum, 37° C., CM 24 HR, read-out: Highest Soluble Concentration Tested) [µM] | solubility ([1]; dosing medium with 20% serum, 37° C., H4IIE 24 HR, read-out: Highest Soluble Concentration Tested) [µM]
COc1cccc2c1C(=O)c1c(O)c3c(c(O)c1C2=O)C[C@@](O)(C(=O)CO)C[C@@H]3O[C@H]1C[C@H](N)[C@H](O[C@@H]2CCCCO2)[C@H](C)O1 [PIRARUBICIN, pirarubicin] | 33.6 | 51.9 | 35.2 | 7 | 50 (≈ 31.4 µg/mL) | 7 | 5 |  |  |  |  |  |  |  |  |  | 
CC[C@@]1(O)C(=O)OCc2c1cc1n(c2=O)Cc2cc3ccccc3nc2-1 [CAMPTOTHECIN, Camptothecin] | 26.0 | 23.6 |  | > 300 |  | > 300 | 0.1 | 50 (≈ 17.4 µg/mL) | 10 (≈ 3.48 µg/mL) | 10 (≈ 3.48 µg/mL) | 10 (≈ 3.48 µg/mL) |  |  |  |  |  | 
Cc1cccc(C)c1OCC(=O)N[C@@H](Cc1ccccc1)[C@@H](O)C[C@H](Cc1ccccc1)NC(=O)[C@H](C(C)C)N1CCCNC1=O [LOPINAVIR, lopinavir] | 82.1 | 98.0 | 16.2 |  |  |  | 60 |  |  |  |  | 72 | 50 (≈ 31.4 µg/mL) | 50 (≈ 31.4 µg/mL) | 72 |  | 
CC(C)Nc1cccnc1N1CCN(C(=O)c2cc3cc(NS(C)(=O)=O)ccc3[nH]2)CC1 [DELAVIRDINE, delavirdine] | 62.3 | 89.8 | 30.7 |  |  |  | 68 |  |  |  |  | 252 |  |  | 166 | 300 (≈ 137 µg/mL) | 300 (≈ 137 µg/mL)

From patent publication US7615361B2, “Toxicity screening methods” (Ceetox, Inc., priority 2006, dated 2009)
